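Dose response: 5 concentrations. Exposure: 48 h. Format: 96-well plates. Endpoint: linear interpolation; highest concentration if not reached. At the GI50, growth is halved.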 Active and inactive are the calls of the source. Cut-off read from the data, not from the text of the source: active = GI50 up to about 1.1 µM and inactive = higher. Peptide text beside a SMILES is read from it. * marks the point of attachment. OSu = O=C1CCC(=O)N1O*
Tests used:
Test in all cases: NCI tumour cell line growth inhibition, 48 h
[1] = system: SN12C
[2] = system: IGROV-1
[3] = system: MCF7
[4] = system: OVCAR-4
[5] = system: SK-MEL-28
[6] = system: OVCAR-5
[7] = system: COLO 205
[8] = system: SF-539
[9] = system: PC-3
[10] = system: SK-MEL-5
[11] = system: HOP-92
[12] = system: HCT-15
[13] = system: CAKI-1
[14] = system: NCI-H226
[15] = system: U-251
[16] = system: BT-549
[17] = system: Malme-3M
[18] = system: MOLT-4
[19] = system: UACC-257
[20] = system: SK-MEL-2

| Structure (SMILES) | GI50 [1] | GI50 [2] | GI50 [3] | GI50 [4] | GI50 [5] | GI50 [6] | GI50 [7] | GI50 [8] | GI50 [9] | GI50 [10] | GI50 [11] | GI50 [12] [µM] | GI50 [13] | GI50 [14] | GI50 [15] | GI50 [16] | GI50 [17] | GI50 [18] | GI50 [19] | GI50 [20] |
| --- | --- | --- | --- | --- | --- | --- | --- | --- | --- | --- | --- | --- | --- | --- | --- | --- | --- | --- | --- | --- |
| CN(C)c1ccc(/N=N/c2ccncc2)cc1 | > 100 µM (inactive) | > 100 µM (inactive) | 40.8 µM (inactive) | 48.1 µM (inactive) | > 100 µM (inactive) | > 100 µM (inactive) | 56.6 µM (inactive) | > 100 µM (inactive) | > 100 µM (inactive) | 67 µM (inactive) | 17.6 µM (inactive) | > 100 | > 100 µM (inactive) | 64.4 µM (inactive) | > 100 µM (inactive) | 84.1 µM (inactive) | > 100 µM (inactive) | 39.8 µM (inactive) | > 100 µM (inactive) | – |
| COC(=O)[C@H]1CO[C@@H](C(C)(C)C)N1C(=O)N1C=CC(=O)C[C@@H]1C | > 100 µM (inactive) | > 100 µM (inactive) | > 100 µM (inactive) | – | > 100 µM (inactive) | > 100 µM (inactive) | > 100 µM (inactive) | – | > 100 µM (inactive) | > 100 µM (inactive) | > 100 µM (inactive) | – | > 100 µM (inactive) | > 100 µM (inactive) | > 100 µM (inactive) | > 100 µM (inactive) | > 100 µM (inactive) | – | > 100 µM (inactive) | > 100 µM (inactive) |
| CCOC(=O)N1C(=S)C(C(=O)OC)(C(=O)OC)N=C1C | > 100 µM (inactive) | > 100 µM (inactive) | > 100 µM (inactive) | > 100 µM (inactive) | > 100 µM (inactive) | > 100 µM (inactive) | > 100 µM (inactive) | – | > 100 µM (inactive) | > 100 µM (inactive) | > 100 µM (inactive) | > 100 | > 100 µM (inactive) | > 100 µM (inactive) | > 100 µM (inactive) | > 100 µM (inactive) | – | > 100 µM (inactive) | > 100 µM (inactive) | > 100 µM (inactive) |
| COc1cccc(/C=C2\S/C(=N/Nc3nc(-c4ccc([N+](=O)[O-])cc4)cs3)NC2=O)c1O | 22.1 µM (inactive) | 11.3 µM (inactive) | 16.6 µM (inactive) | – | 20.8 µM (inactive) | 25.3 µM (inactive) | 16.4 µM (inactive) | 7.82 µM (inactive) | 16.1 µM (inactive) | 12.2 µM (inactive) | 10.3 µM (inactive) | 15.6 | 25 µM (inactive) | 14.9 µM (inactive) | 1.8 µM (inactive) | 4.23 µM (inactive) | 20.5 µM (inactive) | 22.1 µM (inactive) | 27.5 µM (inactive) | – |
| O=C1C2C(C(=O)N1c1ccccc1)C1(c3ccccc3)CCC2(C(=O)c2ccccc2)O1 (configuration not stated) | > 10 µM (inactive) | > 10 µM (inactive) | > 10 µM (inactive) | > 10 µM (inactive) | > 10 µM (inactive) | > 10 µM (inactive) | > 10 µM (inactive) | > 10 µM (inactive) | > 10 µM (inactive) | > 10 µM (inactive) | – | > 10 | > 10 µM (inactive) | – | > 10 µM (inactive) | > 10 µM (inactive) | > 10 µM (inactive) | 9.82 µM (inactive) | > 10 µM (inactive) | > 10 µM (inactive) |
| c1ccc([P+](c2ccccc2)(c2ccccc2)c2ccc([P+](c3ccccc3)(c3ccccc3)c3ccccc3)c3ccccc23)cc1 | > 100 µM (inactive) | 94.8 µM (inactive) | 47 µM (inactive) | – | > 100 µM (inactive) | > 100 µM (inactive) | 52.7 µM (inactive) | 63.7 µM (inactive) | 70.6 µM (inactive) | 62.1 µM (inactive) | – | > 100 | > 100 µM (inactive) | > 100 µM (inactive) | 35.7 µM (inactive) | 51.2 µM (inactive) | > 100 µM (inactive) | > 100 µM (inactive) | 32 µM (inactive) | > 100 µM (inactive) |
| N#C/C(N)=C(C#N)/N=C/NCCO | > 100 µM (inactive) | > 100 µM (inactive) | > 100 µM (inactive) | > 100 µM (inactive) | > 100 µM (inactive) | > 100 µM (inactive) | > 100 µM (inactive) | > 100 µM (inactive) | > 100 µM (inactive) | > 100 µM (inactive) | – | > 100 | > 100 µM (inactive) | > 100 µM (inactive) | > 100 µM (inactive) | > 100 µM (inactive) | > 100 µM (inactive) | > 100 µM (inactive) | > 100 µM (inactive) | > 100 µM (inactive) |
| COC(=O)c1ccc(NC(=O)c2cc3c(cc2Br)OCO3)o1 | > 100 µM (inactive) | > 100 µM (inactive) | > 100 µM (inactive) | > 100 µM (inactive) | > 100 µM (inactive) | > 100 µM (inactive) | > 100 µM (inactive) | > 100 µM (inactive) | > 100 µM (inactive) | > 100 µM (inactive) | 26.5 µM (inactive) | 94 | > 100 µM (inactive) | > 100 µM (inactive) | > 100 µM (inactive) | 39.5 µM (inactive) | – | 95.7 µM (inactive) | > 100 µM (inactive) | > 100 µM (inactive) |
| NCCCCC(NC(=O)C(N)Cc1ccc(O)cc1)C(=O)NC(Cc1ccc(O)cc1)C(=O)NC(CCCCN)C(=O)ON1C(=O)CCC1=O (configuration not stated) (H-YKYK-OSu; configuration not given here) | > 100 µM (inactive) | > 100 µM (inactive) | > 100 µM (inactive) | – | > 100 µM (inactive) | > 100 µM (inactive) | > 100 µM (inactive) | – | > 100 µM (inactive) | > 100 µM (inactive) | > 100 µM (inactive) | > 100 | – | > 100 µM (inactive) | > 100 µM (inactive) | > 100 µM (inactive) | > 100 µM (inactive) | > 100 µM (inactive) | > 100 µM (inactive) | > 100 µM (inactive) |
| CC(=O)Oc1ccc2c(c1)Oc1cc(C(C)=O)ccc1C21OC(=O)c2ccccc21 (configuration not stated) | > 100 µM (inactive) | 85.5 µM (inactive) | > 100 µM (inactive) | > 100 µM (inactive) | > 100 µM (inactive) | > 100 µM (inactive) | > 100 µM (inactive) | – | > 100 µM (inactive) | > 100 µM (inactive) | > 100 µM (inactive) | > 100 | > 100 µM (inactive) | – | > 100 µM (inactive) | > 100 µM (inactive) | > 100 µM (inactive) | > 100 µM (inactive) | > 100 µM (inactive) | > 100 µM (inactive) |
| COc1cc2cccc(N)c2cc1OC | > 100 µM (inactive) | > 100 µM (inactive) | > 100 µM (inactive) | > 100 µM (inactive) | > 100 µM (inactive) | > 100 µM (inactive) | > 100 µM (inactive) | > 100 µM (inactive) | > 100 µM (inactive) | > 100 µM (inactive) | – | > 100 | > 100 µM (inactive) | > 100 µM (inactive) | > 100 µM (inactive) | > 66.7 µM (inactive) | > 100 µM (inactive) | > 100 µM (inactive) | > 100 µM (inactive) | > 100 µM (inactive) |
| O=[N+]([O-])c1ccc(-c2csc3nc(-c4ccccc4)nn23)cc1 | > 100 µM (inactive) | > 100 µM (inactive) | > 100 µM (inactive) | > 100 µM (inactive) | > 100 µM (inactive) | > 100 µM (inactive) | > 100 µM (inactive) | – | > 100 µM (inactive) | > 100 µM (inactive) | 50.5 µM (inactive) | > 100 | 72.8 µM (inactive) | > 100 µM (inactive) | 39.8 µM (inactive) | > 100 µM (inactive) | > 100 µM (inactive) | > 100 µM (inactive) | > 100 µM (inactive) | > 100 µM (inactive) |
| O=c1oc2ccc3ccccc3c2cc1-c1cn2c(n1)sc1ccccc12 | – | > 100 µM (inactive) | 26.4 µM (inactive) | > 100 µM (inactive) | > 100 µM (inactive) | > 100 µM (inactive) | > 100 µM (inactive) | – | > 100 µM (inactive) | > 100 µM (inactive) | 55.2 µM (inactive) | > 100 | > 100 µM (inactive) | > 100 µM (inactive) | > 100 µM (inactive) | > 100 µM (inactive) | > 100 µM (inactive) | 3.06 µM (inactive) | > 100 µM (inactive) | > 100 µM (inactive) |
| CSC1NNC2(C(=O)N1)c1ccccc1-c1ccccc12 (configuration not stated) | > 10 µM (inactive) | > 10 µM (inactive) | > 10 µM (inactive) | > 10 µM (inactive) | > 10 µM (inactive) | – | > 10 µM (inactive) | > 10 µM (inactive) | > 10 µM (inactive) | > 10 µM (inactive) | > 10 µM (inactive) | > 10 | > 10 µM (inactive) | > 10 µM (inactive) | – | > 10 µM (inactive) | > 10 µM (inactive) | > 10 µM (inactive) | > 10 µM (inactive) | – |
| Nn1c(CCCCCCCCc2nnc(COc3ccccc3)n2N)nnc1COc1ccccc1 | > 100 µM (inactive) | > 100 µM (inactive) | > 100 µM (inactive) | > 100 µM (inactive) | > 100 µM (inactive) | > 100 µM (inactive) | > 100 µM (inactive) | – | > 100 µM (inactive) | > 100 µM (inactive) | > 100 µM (inactive) | > 100 | > 100 µM (inactive) | > 100 µM (inactive) | > 100 µM (inactive) | > 100 µM (inactive) | > 100 µM (inactive) | > 100 µM (inactive) | > 100 µM (inactive) | > 100 µM (inactive) |
